In one assay the test system is CrGluCl-C. Type of assay: cell-based, Caligus rogercresseyi. The settings on record: for maximal current: CrGluCl-C, saturating concentration of agonist; for nH (ivermectin) / EC50: CrGluCl-C alone; for EC50: irreversible activation. As to the method:
(§1) Adult female Xenopus laevis frogs were anaesthetized by immersion in a1g/L solution tricaine (Ethyl 3-aminobenzoate methanesulfonate, Sigma) buffered to pH 7 with NaHCO3. Surgery was performed 30–40 min later, once the frog was completely anaesthetized judging by loss of reflexes. Ovarian lobes were removed through 1 cm abdominal incision and then kept at 16°C in Barth’s modified solution containing (in mM): 88 NaCl, 1 KCl, 0.4 CaCl2, 0.3 Ca (NO3)2, 0.8 MgSO4, 2.4 NaHCO3, 5 Hepes, 2.5 sodium pyruvate, 100 μg/ml gentamicin sulfate, 100 U/ml penicillin, 100 μg/ml streptomycin, 250 μg/ml amphotericin B, 0.22μm filtered and adjusted to pH 7.5 with Tris-Base. Osmolarity was brought to 220 mOsm with saccharose. The oocytes were manually defolliculated on the same day of extraction and the following day 20 ng cRNA in nuclease-free water was injected into stage V-VI oocytes using a FemtoJet microinjector (Eppendorf). Finally, the injected oocytes were stored in 96 well plates containing Barth’s modified solution and kept at 16°C until experiment day.
(§2) Current measurements at controlled membrane potentials (voltage-clamp experiments) were performed using two intracellular microelectrodes in defolliculated Xenopus oocytes previously microinjected with 20 ng of cRNA. Voltage-clamp recording was performed at room temperature using a TURBO TEC-10CX amplifier (npi electronic GmbH, Tamm, Germany) and PClamp 10.6 software (Axon Instruments, USA), 1 to 4 days after oocyte injection. The oocytes were recorded in a chamber (Model RC-1Z, Warner Instrumenst, USA) under continuous superfusion. […] Reference was an Ag-AgCl electrode connected to the bath via a 3 M KCl in 3% agar bridge. Currents were recorded continuously during the experiments without interruptions for solution changes. Oocytes were held at -30 mV and a voltage protocol consisting of a voltage drop to -100 mV for 25ms followed by a 360 ms ramp from -100 mV to 60mV applied with a period of 565 ms was continuously given. The signal filtered at 1 kHz was acquired with a Digidata 1440A Analog-to-Digital Converter and analyzed with Axon pClamp 10.6 software. The solution that bathed the oocytes during the electrophysiological recordings had the following composition (mM): 115 NaCl, 2 KCl, 1.8 CaCl2, 1 MgCl2, 10 HEPES pH 7.5 obtained with NaOH. For the low chloride solution, all the NaCl was replaced with the gluconate salt of Na. This decreases chloride concentration from 122.6 to 7.6 mM while increasing that of gluconate from 0 to 115 mM. The stock solutions of the drugs in dimethyl sulfoxide (DMSO) were: 10 mM emamectin, 10 mM ivermectin, 100 mM picrotoxin. These were diluted in bath solution to obtain final concentrations.
(§3) The currents were normalized according to the extrapolated maximum current delivered by the Hill adjustment. In this way, the concentration that generates 50% of the maximum effect (EC50) and the Hill coefficient (nH) for each situation were obtained.

A further assay concerns CrGluCl-D. It counts as cell-based, Caligus rogercresseyi. The settings on record: CrGluCl-D spontaneous current. The procedure:
as §1, §2, §3

For the next assay, the system named is CrGluCl-E. Briefly: Two-electrode voltage-clamp of Xenopus oocytes expressing CrGluCl-E. It counts as cell-based, Caligus rogercresseyi. The settings on record: CrGluCl-E alone; glutamate up to 1mM, 1μM ivermectin. The procedure:
as §1, with “The oocytes were manually defolliculated on the same day of extraction and the following day 20 ng cRNA in nuclease-free water was injected into stage V-VI oocytes using a FemtoJet microinjector (Eppendorf). Finally, the injected oocytes were stored in 96 well plates containing Barth’s modified solution and kept at 16°C until experiment day.” left out
(§4) Current measurements at controlled membrane potentials (voltage-clamp experiments) were performed using two intracellular microelectrodes in defolliculated Xenopus oocytes previously microinjected with 20 ng of cRNA. […] The oocytes were recorded in a chamber (Model RC-1Z, Warner Instrumenst, USA) under continuous superfusion. […] Currents were recorded continuously during the experiments without interruptions for solution changes. […] The signal filtered at 1 kHz was acquired with a Digidata 1440A Analog-to-Digital Converter and analyzed with Axon pClamp 10.6 software. […]

Assay [1] has as its system coexpressed CrGluCl-A:CrGluCl-B. Briefly: Voltage-clamp of oocytes coexpressing CrGluCl-A and CrGluCl-B. It counts as cell-based, Caligus rogercresseyi. As to the method: as §1, §2, §3
Assay [2] concerns coexpressed CrGluCl-C:CrGluCl-B. The experiment in a line: Voltage-clamp of oocytes coexpressing CrGluCl-C and CrGluCl-B. Type of assay: cell-based, Caligus rogercresseyi. The settings on record: for Iver response to activation: B:C ratio 1:1, 1 μM ivermectin. As to the method:
as §1
(§5) Current measurements at controlled membrane potentials (voltage-clamp experiments) were performed using two intracellular microelectrodes in defolliculated Xenopus oocytes previously microinjected with 20 ng of cRNA. Voltage-clamp recording was performed at room temperature using a TURBO TEC-10CX amplifier (npi electronic GmbH, Tamm, Germany) and PClamp 10.6 software (Axon Instruments, USA), 1 to 4 days after oocyte injection. The oocytes were recorded in a chamber (Model RC-1Z, Warner Instrumenst, USA) under continuous superfusion. […] Reference was an Ag-AgCl electrode connected to the bath via a 3 M KCl in 3% agar bridge. Currents were recorded continuously during the experiments without interruptions for solution changes. […] The signal filtered at 1 kHz was acquired with a Digidata 1440A Analog-to-Digital Converter and analyzed with Axon pClamp 10.6 software. […]

Assay [3] concerns the target coexpressed CrGluCl-E:CrGluCl-A (Caligus rogercresseyi, UniProt A0A1W6LZ70). The experiment in a line: Voltage-clamp of oocytes coinjected with CrGluCl-E and CrGluCl-A. It counts as cell-based. To be noted: E:A ratio 1:1. As to the method:
as §1, with “The oocytes were manually defolliculated on the same day of extraction and the following day 20 ng cRNA in nuclease-free water was injected into stage V-VI oocytes using a FemtoJet microinjector (Eppendorf). Finally, the injected oocytes were stored in 96 well plates containing Barth’s modified solution and kept at 16°C until experiment day.” left out
as §4

For assay [4], the system named is coexpressed CrGluCl-E:CrGluCl-B. Briefly: Voltage-clamp of oocytes coexpressing CrGluCl-E and CrGluCl-B. The settings on record: for Iver response to activation: B:E ratio 1:1, 1μM ivermectin. It counts as cell-based, Caligus rogercresseyi. As to the method:
as §1, §5

Assay [5] deals with coexpressed CrGluCl-E:CrGluCl-C. Briefly: Voltage-clamp of oocytes coexpressing CrGluCl-E and CrGluCl-C. It counts as cell-based, Caligus rogercresseyi. To be noted: C:E ratio 1:1. The procedure:
as §1, §5

In a further assay the target is CrGluCl-A (Caligus rogercresseyi, UniProt A0A1W6LZ70). To be noted: cited from earlier work.
CrGluCl-A, sequence (A0A1W6LZ70 entry or part of it): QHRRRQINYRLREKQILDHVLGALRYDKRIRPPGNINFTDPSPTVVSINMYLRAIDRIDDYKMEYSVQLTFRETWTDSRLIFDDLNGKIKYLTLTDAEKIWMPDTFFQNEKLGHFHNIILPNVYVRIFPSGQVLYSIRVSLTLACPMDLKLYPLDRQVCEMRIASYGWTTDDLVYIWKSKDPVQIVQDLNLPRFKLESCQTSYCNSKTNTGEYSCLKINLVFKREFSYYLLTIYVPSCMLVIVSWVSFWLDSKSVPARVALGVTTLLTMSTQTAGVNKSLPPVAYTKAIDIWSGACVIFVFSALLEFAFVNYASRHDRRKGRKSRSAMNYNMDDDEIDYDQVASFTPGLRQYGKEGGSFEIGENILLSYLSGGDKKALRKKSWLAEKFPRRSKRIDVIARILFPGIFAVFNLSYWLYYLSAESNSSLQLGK
For the next assay, the system named is CeGluClβ (CeGLC-2). To be noted: cited from earlier work.

Like-named read-outs stand apart in the source and are kept apart here.

coexpressed CrGluCl-E:CrGluCl-A, sequence (A0A1W6LZ70 entry or part of it): as above

For the compound `N[C@@H](CCC(=O)O)C(=O)O` [glutamate, L-glutamate], the maximal current in the assay with CrGluCl-C came to 3.5 ± 1.7 μA. Moreover, the direct activating effect result with CrGluCl-D is given as “lack a direct activating effect”. Also, the “response (current activation)” value in the assay on CrGluCl-E is reported as “failed to show any response”. Besides, the EC50 in assay [1] (A:B ratio 1:1) turned out to be 82 ± 35 µM; in [1] (A:B ratio 1:4) it was 72 ± 47 µM; in assay [1] (A:B ratio 4:1), 89 ± 47 µM; in [2] (B:C ratio 1:1) it was 53 ± 18.8 µM; in assay [4] (B:E ratio 1:1, 60 mV), 534 ± 239 µM; in [5] it was 36.5 ± 22.5 µM. For the same compound, the EC50 was 6.9 µM on CrGluCl-A (read-out: EC50 Glutamate, previously published) and 380 µM in the assay on CeGluClβ (CeGLC-2) (read-out: EC50 glutamate, CeGluClβ). Moreover, the “nH (glutamate)” value in assay [3] is 2.5 ± 0.3. Further, the “nH (glutamate), previously published” value at CrGluCl-A was 1.33.

As for ivermectin, the “nH (ivermectin)” value in the assay on CrGluCl-C was 2.1; with CrGluCl-C (listed as Ivermectin), 2.1 ± 0.67; in assay [5] it was 2.1 ± 0.67; in assay [5] (listed as Iver), 2.1 ± 0.7; on CrGluCl-A, 2.1. The EC50 was 0.031 ± 0.014 µM in the assay on CrGluCl-C (listed as Ivermectin); 0.0311 ± 0.0144 µM in the assay with CrGluCl-C (read-out: EC50 Ivermectin); 0.181 µM on CrGluCl-A (listed as Ivermectin, read-out: EC50 Ivermectin / avermectin irreversible activation); around 0.2 µM at CrGluCl-A (read-out: EC50 Ivermectin / avermectin irreversible activation). The compound further had a maximal current with CrGluCl-C of 3.7 ± 1.3 μA. For the same compound, the direct activating effect entry with CrGluCl-D is reported as “lack a direct activating effect”. Further, the “response (current activation)” value in the assay on CrGluCl-E is “failed to show any response”. In addition, the “Iver response to activation” value in assay [1] (A:B ratio 1:1) was “Insensitive”; in [1] (A:B ratio 1:4), “Insensitive”; in assay [1] (A:B ratio 4:1) it was “Insensitive”; in assay [2] it was “failed to elicit a significant response”; in [2] (listed as Iver), “Insensitive”; in [3], “Sensitive”. In addition, the “Iver response to activation” value in assay [4] was “without any activating effect”; in assay [4] (listed as Iver), “Insensitive”. Moreover, in the assay with CeGluClβ (CeGLC-2) (CeGLC-2), the “nH (ivermectin inhibition)” value was -1.74. Also, in the assay on CeGluClβ (CeGLC-2) (read-out: IC50 ivermectin inhibition of glutamate activated current, CeGLC-2), the IC50 is 1.28 µM.

Usually IC50 stands for the concentration at which inhibition is half-maximal.
